Measured values published in PMC7463537, “Synthesis and Evaluation of Antimicrobial and Cytotoxic Activity of Oxathiine-Fused Quinone-Thioglucoside Conjugates of Substituted 1,4-Naphthoquinones” (Molecules, 2020).
Values after ≈ are worked out from the molar mass of the structure shown.

Key:
[1] = system: S. aureus ATCC 21027; test: Agar diffusion method, S. aureus; assay type: cell-based, Staphylococcus aureus; design: key to Diameter of Zone Inhibition, S. aureus: Zones within 20–40 mm mean strong antibiotic activity; zones up to 20 mm—moderate; ≤10 mm—weak; +—insignificant; details: for zone of inhibition at 100 µg/disc / zone of inhibition at 1 µg/disc: Staphylococcus aureus, read-out: Diameter of Zone Inhibition, S. aureus; for zone of inhibition at 100 µg/disc: ATCC21027, 24 h, 100 µg/well, 24 h, incl. 7 mm well; for zone of inhibition at 1 µg/disc: ATCC21027, 1 µg/well
Method: (§1) Elyakov Pacific Institute of Bioorganic Chemistry, Far East Branch, Russian Academy of Sciences. Test substances were dissolved in DMSO at concentrations of 1.0, 0.1, and 0.01 mg/mL. All strains were grown on trypticase-soy agar TSA (BBL) at 37 °C. […] After incubation of the dishes at 37 °C for 24 h (for bacteria) and 48 h (for the fungus) at 28 °C, the diameters of the growth inhibition zones of pathogenic microorganisms (mm) were measured, including the diameter of the wells. Commercial antibacterial drugs (vancomicin and gentamicin) and antifungal (clotrimazol) drugs were used as positive controls.

[2] = system: B. cereus ATCC 10702; test: Agar diffusion method, B. cereus; assay type: cell-based, Bacillus cereus; design: key to Diameter of Zone Inhibition, B. cereus: Zones within 20–40 mm mean strong antibiotic activity; zones up to 20 mm—moderate; ≤10 mm—weak; +—insignificant; details: for Diameter of Zone Inhibition, B. cereus: 1 µg/well; for zone of inhibition at 100 µg/disc / zone of inhibition at 1 µg/disc: Bacillus cereus, read-out: Diameter of Zone Inhibition, B. cereus; for zone of inhibition at 100 µg/disc: ATCC10702, 24 h, 100 µg/well, 24 h, incl. 7 mm well; for zone of inhibition at 1 µg/disc: ATCC10702, 1 µg/well
Method: as §1

[3] = system: P. aeruginosa ATCC 27853; test: Agar diffusion method, P. aeruginosa; assay type: cell-based, Pseudomonas aeruginosa; details: Pseudomonas aeruginosa, ATCC27853, 100 µg/well; read-out: Diameter of Zone Inhibition, P. aeruginosa
Method: as §1

[4] = system: E. coli K-12; test: Agar diffusion method, E. coli; assay type: cell-based, Escherichia coli; details: Escherichia coli, K12; 100 µg/well; read-out: Diameter of Zone Inhibition, E. coli
Method: as §1

[5] = system: C. albicans KMM 453; test: Agar diffusion method, C. albicans; assay type: cell-based; details: Candida albicans, KMM453, 48 h, 100 µg/well, 48 h at 28 °C; read-out: Diameter of Zone Inhibition, C. albicans
Method: as §1

[6] = system: S. aureus ATCC 21027; test: Minimum inhibitory concentration, broth microdilution; assay type: cell-based, Staphylococcus aureus; details: for Selectivity index (SI) against S. aureus: SI = EC50 (normal Jb6 Cl 41-5a cells)/MIC; for MIC: Staphylococcus aureus, ATCC21027, broth microdilution, 24 h, read-out: Minimum inhibitory concentration (MIC) against S. aureus
Method: Stocks of substances were prepared in DMSO at a concentration of 10 mM. All studied compounds were tested in concentrations from 1.5 μM to 100 μM using twofold dilution. All tested compounds were add to the wells of the plates in a volume of 20 μL diluted in PBS (DMSO concentration < 1%). The bacterial culture of S. aureus ATCC 21027 (Collection of Marine Microorganisms PIBOC FEB RAS) was cultured in a Petri dish at 37 °C for 24 h on solid medium with the following composition; pepton—5.0 g/L, K2HPO4—0.2 g/L, glucose—1.0 g/L, MgSO4—0.05 g/L, yeast extract—1 g/L, agar—16.0 g/L, and distilled water—1.0 L. The pH of the medium was adjusted to 7.2–7.4 with NaOH solution.
The antimicrobial activity of the compounds was determined by the minimum inhibitory concentration (MIC) according to the method adopted by the Clinical and Laboratory Standards Institute (CLSI). Methods for dilution antimicrobial susceptibility tests for bacteria that grow aerobically followed the approved standard—tenth edition. CLSI document M07-A10, PA: Clinical and Laboratory Standards Institute; 2015, with a slight modification of the medium. The assays were performed in 96-well microplates in appropriate broth (pepton—5.0 g/L, K2HPO4—0.2 g/L, glucose—1.0 g/L, MgSO4—0.05 g/L, yeast extract—1 g/L, casein hydrolyzate—2.5 g/L, distilled water—1L). […] The MIC value is defined as the lowest concentration of compounds resulting in the complete inhibition of bacterial growth by measuring the absorbance at 600 nm with a microplate reader (BioTek, Winooski, Vt, USA). All experiments were performed twice in triplicate. Gentamicin was used as a positive control in concentration 1 mg/mL; 1% DMSO solution in PBS as a negative. The selectivity index for S. aureus has been defined as the ratio of EC50 for normal cells and the MIC value for the bacterial culture (SI = EC50/MIC).

[7] = system: Gram-positive bacteria (S. aureus, B. cereus); test: Agar diffusion method, Gram-positive strains; assay type: cell-based, Staphylococcus aureus, Bacillus cereus; details: for Antimicrobial activity / inhibition zone diameter, Gram-positive bacteria: 10 µg/well; for Antimicrobial activity, Gram-positive strains: dilution to 1 µg/well
Method: as §1

[8] = system: human cervical cancer (HeLa); test: Cytotoxicity, MTT assay, HeLa cells; details: for EC50: Homo sapiens, HeLa, 24 h, read-out: Cytotoxicity (EC50), HeLa; for Selectivity Index (SI), HeLa: SI = EC50 (Jb6 Cl 41-5a normal cells)/EC50 (tumor cells)
[9] = system: mouse neuroblastoma (Neuro 2a); test: Cytotoxicity, MTT assay, Neuro 2a cells; details: for EC50: N2a, 24 h, read-out: Cytotoxicity (EC50), Neuro 2a; for Selectivity Index (SI), Neuro-2a: SI = EC50 (Jb6 Cl 41-5a normal cells)/EC50 (tumor cells)
[10] = Cytotoxicity, MTT assay, Jb6 Cl 41-5a normal epithelial cells; details: mouse, Jb6 Cl 41-5a normal epithelial cells
[11] = system: mouse ascites Ehrlich carcinoma; test: Cytotoxicity, nonspecific esterase (FDA) assay, ascites Ehrlich carcinoma cells; details: for EC50: Mus musculus, Ehrlich, 24 h, read-out: Cytotoxicity (EC50), Ascites Ehrlich Carcinoma; for Selectivity Index (SI), Ascitic Ehrlich Carcinoma: SI = EC50 (Jb6 Cl 41-5a normal cells)/EC50 (tumor cells)

| Compound | zone of inhibition at 100 µg/disc [1] [mm] | Diameter of Zone Inhibition, B. cereus [2] | zone of inhibition at 100 µg/disc [2] [mm] | zone of inhibition at 100 µg/disc [3] [mm] | zone of inhibition at 100 µg/disc [4] [mm] | zone of inhibition at 100 µg/disc [5] [mm] | Selectivity index (SI) against S. aureus [6] | MIC [6] [µM] | Antimicrobial activity / inhibition zone diameter, Gram-positive bacteria [7] | Antimicrobial activity, Gram-positive strains [7] | EC50 [8] [µM] | Selectivity Index (SI), HeLa [8] | EC50 [9] [µM] | Selectivity Index (SI), Neuro-2a [9] | EC50 at 24 h [10] [µM] | EC50 [11] [µM] | Selectivity Index (SI), Ascitic Ehrlich Carcinoma [11] | zone of inhibition at 1 µg/disc [1] [mm] | zone of inhibition at 1 µg/disc [2] [mm] | melting point [°C] | further results |
| --- | --- | --- | --- | --- | --- | --- | --- | --- | --- | --- | --- | --- | --- | --- | --- | --- | --- | --- | --- | --- | --- |
| O=C1C2=C(O[C@@H]3[C@@H](O)[C@H](O)CO[C@H]3S2)C(=O)c2c(O)cccc21 [Compound 20c, (3R,4S,4aR,12aS)-3,4,7-Trihydroxy-3,4,4a,12a-tetrahydro-2H-naphtho[2,3-b]pyrano[2,3-e][2,5]oxathiine-6,11-dione] | 30 ± 2 | + | 25 ± 1 | 0 | 0 | 8 ± 1 | 0.02 | 12.5 (≈ 4.2 µg/mL) | comparable with antibiotics vancomicin and gentamicin | residual effect | 2.3 | 0.1 | 2.2 | 0.1 | 0.3 | 0.7 | 0.4 | – | – | – | Diameter of Zone Inhibition, S. aureus ([1]; 1 µg/well): + |
| O=C1C2=C(O[C@@H]3[C@@H](O)[C@@H](O)CO[C@H]3S2)C(=O)c2c(O)cccc21 [Compound 20d, (3S,4S,4aR,12aS)-3,4,7-Trihydroxy-3,4,4a,12a-tetrahydro-2H-naphtho[2,3-b]pyrano[2,3-e][2,5]oxathiine-6,11-dione] | 40 ± 2 | + | 30 ± 3 | 0 | 0 | 0 | 0.1 | 6.25 (≈ 2.1 µg/mL) | comparable with antibiotics vancomicin and gentamicin | residual effect | 0.4 | 1.75 | 1.4 | 0.5 | 0.7 | 1.2 | 0.6 | 0 | – | – | – |
| O=C1C2=C(O[C@@H]3[C@@H](O)[C@H](O)[C@@H](CO)O[C@H]3S2)C(=O)c2c(O)cccc21 [Compound 20a, (2R,3S,4S,4aR,12aS)-3,4,7-Trihydroxy-2-(hydroxymethyl)-3,4,4a,12a-tetrahydro-2H-naphtho[2,3-b]pyrano-[2,3-e][2,5]oxathiine-6,11-dione] | 30 ± 2 | – | 22 ± 1 | 0 | 0 | 0 | – | 25 (≈ 9.16 µg/mL) | – | – | 6.3 | 0.1 | 0.7 | 1 | 0.7 | 2.7 | 0.3 | 0 | 0 | 274 to 276 | – |
| O=C1C2=C(O[C@@H]3[C@@H](O)[C@@H](O)[C@@H](CO)O[C@H]3S2)C(=O)c2c(O)cccc21 [Compound 20b, (2R,3R,4S,4aR,12aS)-3,4,7-Trihydroxy-2-hydroxymethyl-3,4,4a,12a-tetrahydro-2H-naphtho[2,3-b]pyrano[2,3-e][2,5]oxathiine-6,11-dione] | 30 ± 2 | – | 20 ± 1 | 0 | 0 | 0 | – | 25 (≈ 9.16 µg/mL) | – | – | 4.7 | 0.1 | 1.2 | 0.4 | 0.5 | 1.1 | 0.5 | 0 | 0 | 293 to 295 | – |
